Test results: patent US6010478A, “Trans-mucosal particle delivery” (PowderJect Research Limited, priority 1995, dated 2000)
Where a name gives a salt, the structure may show the parent alone. Read-outs that look alike come from different tables or passages of the source.

What was measured:
oral mucosa [1] = experiment: Visual assessment of delivery sites for damage or irritation of mucosal tissues; assay type: in vivo, human; conditions: 3 mg particles 38-53 μm, needleless syringe, 24-48 hours after delivery, 14 subjects
Method: A randomized, double-blind, negatively controlled study was carried out in normal, healthy human subjects as follows. Initially, a single 3 mg dose of lignocaine HCL particles sized between 38 and 53 μm was delivered from a needleless syringe constructed in accordance with the invention. The lignocaine was delivered to the oral mucosa adjacent to the number 12 and 22 lateral incisors in 14 trial subjects. The delivery sites were then visually assessed for evidence of damage or irritation to the mucosal tissues.

oral mucosa [2] = test system: oral mucosa; parameters: species or system human; conditions: in vivo
Method: In a second study, a single 3.0 mg dose of lignocaine HCL particles (as above) was delivered using a needleless syringe, and a single 0.2 mL dose of 2% lignocaine HCL was delivered via needle-syringe injection. Pain associated with the administration of each treatment was scored in all 14 subjects using a 100 mm visual analogue scale immediately after each treatment, wherein 100% indicates a painful treatment, and 0% indicates a pain-free treatment. The needleless syringe employed in the study was operated using 40 bar helium driving gas to expel anaesthetic particles from a flexible, eversible dome-shaped membrane comprised of a 400 μm, 6 mm polyurethane film.

oral mucosa [3] = experiment: Local anaesthesia: pain response to probing of treated oral mucosa, visual analogue scale; assay type: in vivo, human; conditions: 3.0 mg particles by needleless syringe
Method: A randomized, double-blind study was then carried out as follows. Treatments were given to 14 subjects over the course of three visits. The treatments provided to the subjects in each visit were either a single 3.0 mg dose of Lignocaine HCL particles from the above-described needleless syringe device, or 0.0 mg (as a blinded negative control). Accordingly, treatments provided over the course of the three visits were either: two actual (3.0 mg) doses of the anaesthetic particles and one placebo; or two placebos and one actual (3.0 mg) dose. Pain stimulus was provided by probing oral mucosa with the back of a 27G dental needle, wherein the probe sequence was a probe on an untreated area of the mucosa, and then a probe on the treated area of the mucosa 1 minute post delivery. Again, the pain associated with the probe of the untreated and treated areas was scored on visual analogue scales using the above scoring methods immediately after each probe.

[4] = Serum testosterone pharmacokinetics after transmucosal (OralJect needleless syringe) or subcutaneous delivery; assay type: in vivo, female New Zealand White rabbit; conditions: for Cmax: 2 mg
Method: Testosterone (Sigma Chemicals) was milled and sieved into a particle size range (approximately 50-100 μm) suitable for transmucosal delivery from a needleless syringe using standard stainless steel mesh sieves. Female New Zealand White rabbit subjects weighing between 2.2-2.8 kg were used and allowed food and water ad libitum. The rabbits (n=8) were randomly assigned to one of two treatment groups. The first treatment group received testosterone (2.0 mg dose) as a suspension in 35% polyvinylpyrrolidone C-30 in water (6 mg/g testosterone concentration) via subcutaneous injection. The second treatment group received testosterone (2.0 mg dose of testosterone particles ranging from 53-75 μm) as two 1.0 mg transmucosal administrations from an OralJect™ needleless syringe device abutted against the cheek mucosa.
Whole blood (1.0 ml) was taken at times 0, 0.5, 1, 2, 4, 6, 8, 12, 24 and 48 hours, the serum aspirated and assayed for testosterone by radioimmunoassay (DPC). The OralJect™ device is a prototype device of the present invention that is actuated by helium at 40 bar.

Compound | tissue reaction at delivery site (oral mucosa [1]) | pain associated with administration (mean VAS score) (oral mucosa [2]) [%] | level of local anaesthesia relative to placebo treatments (oral mucosa [3]; 1 minute post delivery) | pain response score to probe of treated area (mean VAS) (oral mucosa [3]; probe 1 minute post delivery, untreated probe 55.6%, placebo 30.6%) [%] | Cmax comparison between treatments ([4]; OralJect transmucosal vs subcutaneous, 2.0 mg, rabbit) | pharmacokinetic profile, transmucosal vs subcutaneous ([4]; OralJect transmucosal vs subcutaneous, rabbit) | % BA (% bioavailability) ([4]; OralJect transmucosal, 2.0 mg, rabbit) [%] | time of second minor peak of serum testosterone ([4]; OralJect transmucosal, post administration, possible depot effect) [h] | Cmax ([4]; rabbit, serum, OralJect transmucosal (cheek mucosa), 2 x 1.0 mg particles 53-75 μm, helium 40 bar, rabbit, read-out: Cmax (mean maximum serum concentration)) [nM] | Cmax ([4]; rabbit, serum, sc, subcutaneous injection, 2.0 mg suspension in 35% polyvinylpyrrolidone C-30 in water, rabbit, read-out: Cmax (mean maximum serum concentration)) [nM] | Cmax ([4]; rabbit, serum, sc, subcutaneous injection, 2.0 mg, rabbit, read-out: Cmax range) [nM] | Tmax ([4]; rabbit, serum, OralJect transmucosal, 2.0 mg, in all animals) [min]
CCN(CC)CC(=O)Nc1c(C)cccc1C [lignocaine HCL, lignocaine hydrochloride] | no evidence of any tissue reaction was observed | 49.9 | superior level of local anaesthesia relative to the placebo treatments | 15.0 | – | – | – | – | – | – | – | –
C[C@]12CC[C@H]3[C@@H](CCC4=CC(=O)CC[C@@]43C)[C@@H]1CC[C@@H]2O [testosterone] | – | – | – | – | not significantly different between treatments although there was a tendency for it to be lower following OralJect™ administration | markedly different from that achieved following subcutaneous administration | ~48.3 | 12 | 25.5 ± 3.5 | 34.8 ± 6.9 | 26.9 to 55.2 | 30
